Laboratory results reported in patent US20220283500A1, “CHEMICALLY AMPLIFIED POSITIVE-TYPE PHOTOSENSITIVE RESIN COMPOSITION, PHOTOSENSITIVE DRY FILM, PRODUCTION METHOD FOR PHOTOSENSITIVE DRY FILM, PRODUCTION METHOD FOR PATTERNED RESIST FILM, COMPOUND, PHOTO-ACID GENERATOR, AND PRODUCTION METHOD FOR N-ORGANOSULFONYLOXY COMPOUND” (TOKYO OHKA KOGYO CO., LTD., priority 2019, published 2022).

Experiment: Evaluation of solubility of acid generator in PGMEA
Details: maximal concentration dissolved in propylene glycol monomethyl ether acetate (PGMEA)

| Structure (SMILES) | Solvent solubility of acid generator |
| --- | --- |
| CCCCc1ccc2c3c(cccc13)C(=O)N(OS(=O)(=O)C(F)(F)F)C2=O [PAG-6, reference compound] | > 20% by mass |
| CCCCC(Oc1cc2c3c(cccc3c1)C(=O)N(OS(=O)(=O)C(F)(F)C(=O)OC)C2=O)C(=O)O (stereo not drawn) [PAG-13] | 10% by mass |
| CCCCC(CC)COC(=O)CSc1ccc2c3c(cccc13)C(=O)N(OS(=O)(=O)C(F)(F)C(=O)OC1C3CC4OS(=O)(=O)C1C4C3)C2=O (stereo not drawn) [PAG-12] | > 20% by mass |
| O=C1c2cccc3cccc(c23)C(=O)N1OS(=O)(=O)C(F)(F)F [PAG-5, reference compound] | < 1% by mass |
| CC(C)c1cc2c3c(c(C(C)C)ccc3c1)C(=O)N(OS(=O)(=O)C(F)(F)C(=O)OCCC13CC4CC(CC(C4)C1)C3)C2=O [PAG-31] | > 20% by mass |
| COC(=O)C(F)(F)S(=O)(=O)ON1C(=O)c2cc(C(C)C)cc3ccc(C(C)C)c(c23)C1=O [PAG-29] | 10% by mass |
| CC(C)c1cc2c3c(c(C(C)C)ccc3c1)C(=O)N(OS(=O)(=O)C(F)(F)C(=O)OCCC1CCCCC1)C2=O [PAG-30] | > 20% by mass |
| CCCCC(Oc1cc2c3c(cccc3c1)C(=O)N(OS(=O)(=O)C(F)(F)C(=O)OC1C3CC4OS(=O)(=O)C1C4C3)C2=O)C(=O)O (stereo not drawn) [PAG-16] | 10% by mass |
| O=C1c2cccc3cccc(c23)C(=O)N1OS(=O)(=O)C(F)(F)C(=O)OC1C2CC3OS(=O)(=O)C1C3C2 (stereo not drawn) [PAG-8] | < 1% by mass |
| CCCCc1ccc2c3c(cccc13)C(=O)N(OS(=O)(=O)C(F)(F)C(=O)OC)C2=O [PAG-1] | > 20% by mass |
| CCCCC(Oc1cc2c3c(cccc3c1)C(=O)N(OS(=O)(=O)C(F)(F)C(=O)OCCC13CC4CC(CC(C4)C1)C3)C2=O)C(=O)O (stereo not drawn) [PAG-15] | 10% by mass |
| CCCCC(CC)COC(=O)CSc1ccc2c3c(cccc13)C(=O)N(OS(=O)(=O)C(F)(F)C(=O)OC)C2=O (stereo not drawn) [PAG-9] | > 20% by mass |
| CCCCC(CC)COC(=O)CSc1ccc2c3c(cccc13)C(=O)N(OS(=O)(=O)C(F)(F)C(=O)OCCC13CC4CC(CC(C4)C1)C3)C2=O (stereo not drawn) [PAG-11] | > 20% by mass |
| CCCCC(CC)COC(=O)CSc1ccc2c3c(cccc13)C(=O)N(OS(=O)(=O)C(F)(F)C(=O)OCCC1CCCCC1)C2=O (stereo not drawn) [PAG-10] | > 20% by mass |
| CCCCC(Oc1cc2c3c(cccc3c1)C(=O)N(OS(=O)(=O)C(F)(F)C(=O)OCCC1CCCCC1)C2=O)C(=O)OC(C)(C)C (stereo not drawn) [PAG-18] | 15% by mass |
| CCCCC(Oc1cc2c3c(cccc3c1)C(=O)N(OS(=O)(=O)C(F)(F)C(=O)OCCC1CCCCC1)C2=O)C(=O)O (stereo not drawn) [PAG-14] | 10% by mass |
| COC(=O)C(F)(F)S(=O)(=O)ON1C(=O)c2cccc3cccc(c23)C1=O [PAG-7] | 5% by mass |
| CCCCC(Oc1cc2c3c(cccc3c1)C(=O)N(OS(=O)(=O)C(F)(F)C(=O)OCCC13CC4CC(CC(C4)C1)C3)C2=O)C(=O)OC(C)(C)C (stereo not drawn) [PAG-19] | 15% by mass |
| CCCCc1ccc2c3c(cccc13)C(=O)N(OS(=O)(=O)C(F)(F)C(=O)OCCC1CCCCC1)C2=O [PAG-2] | > 20% by mass |
| CC(C)c1cc2c3c(c(C(C)C)ccc3c1)C(=O)N(OS(=O)(=O)C(F)(F)C(=O)OC1C3CC4OS(=O)(=O)C1C4C3)C2=O (stereo not drawn) [PAG-32] | 10% by mass |
| CCCCC(Oc1cc2c3c(cccc3c1)C(=O)N(OS(=O)(=O)C(F)(F)C(=O)OC)C2=O)C(=O)OC(C)(C)C (stereo not drawn) [PAG-17] | 15% by mass |
